{"source": "patent US20220267444A1", "about": "“ANTI-PD-1 ANTIBODY AND MEDICAL USE THEREOF” (CTTQ-AKESO (SHANGHAI) BIOMED. TECH. CO., LTD., priority 2019, published 2022)", "key": {"CHO-K1-PD1 cells": {"test_system": "CHO-K1-PD1 cells", "test": "Antibody-mediated phagocytic activity (ADCP) of murine macrophages on CHO-K1-PD1", "format": "cell-based, mouse", "conditions": "CHO-K1-PD1-CFSE target cells", "experimental": "To detect the antibody dependent cellular phagoxytosis (ADCP) activity, murine macrophages were used as effector cells and cell lines overexpressing PD1 were used as target cells. The femoral bone marrow of Blab/c mice (purchased from Guangdong Medical Laboratory Animal Center) was first aseptically collected and lysed by erythrocyte lysis buffer on ice for 5 min. The lysis was terminated with DMEM complete medium (containing 10% FBS), and the lysate was centrifuged at 1000 rpm and washed twice. The cell pellet was resuspended in 10 mL of DMEM complete medium and M-CSF were added at a working concentration of 100 ng/mL. […] The supernatant was discarded and the cells were suspended in DMEM complete medium (containing 10% FBS) and counted. […] CHO-K1-PD1 cells (a CHO-K1 cell line overexpressing PD1) were centrifuged at 170×g for 5 min, washed once with PBS, resuspended and counted. The viability was determined. […]\nThe test antibodies were diluted in DMEM complete medium to 20, 2 and 0.2 μg/mL (the working concentrations were 10, 1 and 0.1 μg/mL). […] The cells were transferred to loading tube and analyzed by BD FACS Calibur flow cytometer. […] The phagocytosis rate was determined as the ratio of the number of double positive cells to the number of APC positive cells, and the antibody-mediated ADCP activity was evaluated. […]"}, "[1]": {"test_system": "human nasopharyngeal cancer CNE-2Z cells", "test": "Raji-PDL1, PBMC and CNE-2Z co-culture with antibodies and anlotinib, IL-2 ELISA", "format": "cell-based", "conditions": "CNE-2Z co-culture, 3 days; compared to the anti-HEL antibody and the anlotinib monotherapies", "experimental": "PBMCs were isolated from healthy human peripheral blood according to the Ficoll-Paque™ Plus reagent instruction, and the isolated PBMCs were counted and frozen. Raji-PDL1 and CNE-2Z cells (purchased from GuangZhou Jennio Biotech Co., Ltd.) were cultured in RPMI 1640+10% FBS complete medium. PBMCs were thawed and activated with 0.5 μg/mL SEB for two days. On the day of the experiment, Raji-PDL1 cells were treated with 2 μg/mL MMC for 1 h. SEB-activated PBMCs and MMC-treated Raji-PDL1 cells were collected, washed twice with PBS, resuspended in RPMI 1640+10% FBS complete medium and counted. Raji-PDL1 and PBMC cells were seeded on 96-well plates at 1×10^5 cells/well. CNE-2Z cells in logarithmic growth phase were collected and seeded on the 96-well plate at 3×10^4 cells/well. The diluted antibodies and anlotinib were added according to the study design. The mixture was mixed evenly and incubated in a 5% CO2 incubator at 37° C. for 3 days. After 3 days, the cell culture supernatant was collected and tested for IL-2 according to ELISA KIT instruction. The media in this experiment were all 10% FBS+RPMI 1640."}, "[2]": {"test_system": "MSI-H/dMMR tumor SW48 cells", "test": "Raji-PDL1, PBMC and SW48 co-culture with antibodies and anlotinib, IL-2 ELISA", "format": "cell-based, human", "conditions": "3 days, compared to anti-HEL antibody", "experimental": "SW48 is a human colorectal cancer cell line and is identified with MSI-H/dMMR phenotype (Branch P et al., (1995), Cancer Res, 55(11): 2304-2309). It was used for detecting the enhanced immune cell response to tumor of MSI-H/dMMR phenotype by 14C12H1L1(hG1TM).\nPBMCs were isolated from healthy human peripheral blood according to the Ficoll-Paque™ Plus reagent instruction, and the isolated PBMCs were counted and frozen. Raji-PDL1 cells were cultured in RPMI 1640+10% FBS complete medium, and SW48 cells (purchased from GuangZhou Jennio Biotech Co., Ltd.) were cultured in DMEM+10% FBS complete medium. PBMCs were thawed and activated with 0.5 μg/mL SEB for two days. On the day of the experiment, Raji-PDL1 cells were treated with 2 μg/mL MMC for 1 h. SEB-activated PBMCs and MMC-treated Raji-PDL1 cells were collected, washed twice with PBS, resuspended in RPMI 1640+10% FBS complete medium and counted. Raji-PDL1 and PBMC cells were seeded on 96-well plates at 1×10^5 cells/well. SW48 cells in logarithmic growth phase were collected and seeded on the 96-well plate at 2×10^5 cells/well. The diluted antibody and anlotinib was added according to the study design. The mixture was mixed evenly and incubated in a 5% CO2 incubator at 37° C. for 3 days. After 3 days, the cell culture supernatant was collected and tested for IL-2 according to ELISA KIT instruction. […]"}, "[3]": {"test_system": "human colorectal cancer SW837 cells", "test": "Raji-PDL1, PBMC and SW837 co-culture, IL-2 ELISA", "format": "cell-based", "conditions": "3 days", "experimental": "SW837 is a human colorectal cancer cell line of non-MSI-H/dMMR (i.e., MSS) phenotype (Guo J et al., Cancer Res., 2011; 71(8):2978-2987), and was used for detecting the enhanced immune cell response to tumor of non-MSI-H/dMMR (i.e., MSS) phenotype by 14C12H1L1(hG1TM) in this example.\nPBMCs were isolated from healthy human peripheral blood according to the Ficoll-Paque™ Plus reagent instruction, and the isolated PBMCs were counted and frozen. Raji-PDL1 cells were cultured in RPMI 1640+10% FBS complete medium, and SW837 cells (purchased from Shanghai Honsun Biological Technology Co., Ltd) were cultured in 10% FBS+Leibovitz's L-15 complete medium (purchased from Gibco). PBMCs were thawed and activated with 0.5 μg/mL SEB for two days. On the day of the experiment, Raji-PDL1 cells were treated with 2 μg/mL MMC for 1 h. SEB-activated PBMCs and MMC-treated Raji-PDL1 cells were collected, washed twice with PBS, resuspended in RPMI 1640+10% FBS complete medium and counted. Raji-PDL1 and PBMC cells were seeded on 96-well plates at 1×10^5 cells/well. SW837 cells in logarithmic growth phase were collected and seeded on the 96-well plate at 5×10^4 cells/well. The diluted antibody was added according to the study design. The mixture was mixed evenly and incubated in a 5% CO2 incubator at 37° C. for 3 days. […]"}}}
{"substance": "nivolumab: anti-PD-1 antibody nivolumab (trade name: Opdivo), purchased from Bristol-Myers Squibb [reference compound]", "values": [{"measurement": "ADCP effect", "setting": "CHO-K1-PD1 cells", "value": "have ADCP effects"}, {"measurement": "phagocytic rate relative to that of the isotype control anti-HEL antibody", "setting": "CHO-K1-PD1 cells; at the same concentration, 2 h, flow cytometry", "value": 4.26, "unit": "times"}, {"measurement": "immune response of immune cells (IL-2 secretion level)", "setting": "[1]", "value": "significantly increased IL-2 secretion level"}, {"measurement": "immune response of immune cells (secretion level of IL-2)", "setting": "[2]", "value": "significantly increased secretion level of IL-2"}, {"measurement": "immune response of immune cells (IL-2)", "setting": "[3]", "value": "significantly enhanced the immune response"}]}
